What was measured:
STZ-diabetic rats [1] = assay: Diabetic neuropathy, mechanical allodynia (von Frey filaments); assay type: in vivo, rat; details: 25 mg/kg, p.o., bid, x49 d
Experimental: Adult male Sprague Dawley (SD) rats weighing 250-300 gm (Charles River Laboratories, San Diego, Calif.) were used. The animal room was lighted artificially at a 12-hr light-dark cycle (from 7:00 A.M. to 7:00 P.M.) with water and food supply ad libitum. Animals were allocated randomly into groups. Forty-nine (49) days prior to the behavioral tests, rats received a bolus injection of STZ (75 mg/kg, i.v.). STZ was dissolved in 0.1 M sodium citrate buffer, pH 4.5 solution, at the concentration of 75 mg/ml. To ensure the development of hyperglycemia, their non-fasted levels of glucose in whole blood, obtained via tail veins, were evaluated, using a glocometer (Accucheck®, Roche Diagnostics, Palo Alto, Calif.), once a week. Animals failing to show hyperglycemic conditions (i.e., whole blood glucose>120 mg/dL) were removed from the study. Diabetic rats were treated orally with Compound 62 (5 mg/kg or 25 mg/kg, both bid) or vehicle (1 ml/kg, bid), starting the date of STZ-injection. Compound 62 was dissolved in vehicle, which is composed of 96% of 0.5% CMC and 4% of 10% Tween 80. As a control, a group of naive rats received oral Compound 62 (25 mg/kg, bid) or vehicle (1 ml/kg, bid) treatment. Each group had >12 rats. […]

STZ-diabetic rats [2] = assay: Diabetic neuropathy, mechanical hyperalgesia (paw-withdrawal reflex test, Basile Analgesymeter); assay type: in vivo, Sprague Dawley (SD) rats; details: p.o., bid; for PWT (paw-withdrawal threshold), mechanical hyperalgesia: STZ-diabetic rats, mean ± SEM
Text: In this example, the ability of Compound 62 to produce beneficial effects in protecting against and/or reversing the pathology of neuropathy in a streptozotocin (STZ)-induced rat model of diabetes. To evaluate if chronic treatment with Compound 62 protects the diabetic animals from developing neuropathy, they were examined for mechanical hyperalgesia responses.
Adult male Sprague Dawley (SD) rats weighing 250-300 gm (Charles River Laboratories, San Diego, Calif.) were used. The animal room was lighted artificially at a 12-hr light-dark cycle (from 7:00 A.M. to 7:00 P.M.) with water and food supply ad libitum. Animals were allocated randomly into groups. Forty-nine (49) days prior to the behavioral tests, rats received a bolus injection of STZ (75 mg/kg, i.v.). STZ was dissolved in 0.1 M sodium citrate buffer, pH 4.5 solution, at the concentration of 75 mg/ml. To ensure the development of hyperglycemia, their non-fasted levels of glucose in whole blood, obtained via tail veins, were evaluated, using a glocometer (Accucheck®, Roche Diagnostics, Palo Alto, Calif.), once a week. Animals failing to show hyperglycemic conditions (i.e., whole blood glucose>120 mg/dL) were removed from the study. Diabetic rats were treated orally with Compound 62 (5 mg/kg or 25 mg/kg, both bid) or vehicle (1 ml/kg, bid), starting the date of STZ-injection. Compound 62 was dissolved in vehicle, which is composed of 96% of 0.5% CMC and 4% of 10% Tween 80. As a control, a group of naive rats received oral Compound 62 (25 mg/kg, bid) or vehicle (1 ml/kg, bid) treatment. Each group had >12 rats. Time-effect curves of the STZ diabetic rats (Compound 62 vs. Vehicle) were compared with each other, while curves of the naive rats (Compound 62 vs. Vehicle) were compared with each other. The comparisons were conducted, using two-way (group×time) repeated measures analysis of variance (ANOVA) followed by Fishers post-hoc test. A probability value of p<0.05 was considered as statistically significant.
Before the experiments, these rats were trained in the paw-withdrawal reflex test, using a Basile Analgesymeter (Ugo Basile, Biological Research Apparatus, Comerio VA, Italy), which applies a linearly increasing mechanical force to the dorsum of the rats hind paw. The training of mechanical nociceptive flexion reflex response was performed on lightly restrained rats, at 5-min intervals for 1 hr each day for a period of 5 days. On the day of the experiment, paw-withdrawal thresholds (PWT) (i.e., mechanical force that causes the animal to withdraw its paw from the stimulus) were measured at 5-min intervals for 1 hr. The mean was obtained from the average of the last 6 PWT readings. […]

**Q.** With `CC(C)(C)/[N+]([O-])=C/c1ccc(S(C)(=O)=O)cc1` [Compound 62, N-tert-Butyl-C-[4-(methanesulfonyl)phenyl]nitrone] as the compound, how does the “effect on PWT / reversal of allodynia vs vehicle (in words)” value (STZ-diabetic rats [1]) read?
**A.** The value was “significantly enhanced the PWT”.

**Q.** What about the “PWT (von Frey), mechanical allodynia” value (STZ-diabetic rats [1]; mean ± SEM) of the same compound?
**A.** The value was 6.08 ± 0.94 GRAMS.

**Q.** What about the “significantly reversed mechanical hyperalgesia compared with vehicle-treated STZ-diabetic rats (in words)” value (STZ-diabetic rats [2]; 5 mg/kg, x49 d) of the same compound?
**A.** The value was “not”.

**Q.** And the “reversal of mechanical hyperalgesia compared with vehicle-treated STZ-diabetic rats (in words)” value (STZ-diabetic rats [2]; 25 mg/kg, x49 d)?
**A.** The value was “significantly reversed mechanical hyperalgesia”.

**Q.** And the “PWT (paw-withdrawal threshold), mechanical hyperalgesia” value (STZ-diabetic rats [2]; 5 mg/kg, x49 d (low dose, 62L))?
**A.** The value was 70.29 ± 3.18 GRAMS.

**Q.** And the “PWT (paw-withdrawal threshold), mechanical hyperalgesia” value (STZ-diabetic rats [2]; 25 mg/kg, x49 d (high dose, 62H))?
**A.** Its value is 86.86 ± 4.79 GRAMS.

From patent US20100168112A1, “2-Substituted and 4-substituted aryl nitrone compounds” (RENOVIS, INC., priority 2004, published 2010)
